Measured values published in patent US20230257396A1, “MACROCYCLES AND THEIR USE” (BLOSSOMHILL THERAPEUTICS, INC., priority 2020, published 2023).
Positions count from the first letter of the chain named.

Experiments:
Test in all cases: KINOMEscan kinase binding assay (Eurofins/DiscoveRx), % Ctrl
Settings in all cases: 1 μM
[1] = molecular target: T1, kinases (Homo sapiens, UniProt P36888, R834Q)
T1 construct: purchased Eurofins/DiscoveRx; host or cells: E. coli BL21-derived host (T7 phage display) for most kinases; HEK-293 for the rest
T1 sequence (P36888 27-993 R834Q): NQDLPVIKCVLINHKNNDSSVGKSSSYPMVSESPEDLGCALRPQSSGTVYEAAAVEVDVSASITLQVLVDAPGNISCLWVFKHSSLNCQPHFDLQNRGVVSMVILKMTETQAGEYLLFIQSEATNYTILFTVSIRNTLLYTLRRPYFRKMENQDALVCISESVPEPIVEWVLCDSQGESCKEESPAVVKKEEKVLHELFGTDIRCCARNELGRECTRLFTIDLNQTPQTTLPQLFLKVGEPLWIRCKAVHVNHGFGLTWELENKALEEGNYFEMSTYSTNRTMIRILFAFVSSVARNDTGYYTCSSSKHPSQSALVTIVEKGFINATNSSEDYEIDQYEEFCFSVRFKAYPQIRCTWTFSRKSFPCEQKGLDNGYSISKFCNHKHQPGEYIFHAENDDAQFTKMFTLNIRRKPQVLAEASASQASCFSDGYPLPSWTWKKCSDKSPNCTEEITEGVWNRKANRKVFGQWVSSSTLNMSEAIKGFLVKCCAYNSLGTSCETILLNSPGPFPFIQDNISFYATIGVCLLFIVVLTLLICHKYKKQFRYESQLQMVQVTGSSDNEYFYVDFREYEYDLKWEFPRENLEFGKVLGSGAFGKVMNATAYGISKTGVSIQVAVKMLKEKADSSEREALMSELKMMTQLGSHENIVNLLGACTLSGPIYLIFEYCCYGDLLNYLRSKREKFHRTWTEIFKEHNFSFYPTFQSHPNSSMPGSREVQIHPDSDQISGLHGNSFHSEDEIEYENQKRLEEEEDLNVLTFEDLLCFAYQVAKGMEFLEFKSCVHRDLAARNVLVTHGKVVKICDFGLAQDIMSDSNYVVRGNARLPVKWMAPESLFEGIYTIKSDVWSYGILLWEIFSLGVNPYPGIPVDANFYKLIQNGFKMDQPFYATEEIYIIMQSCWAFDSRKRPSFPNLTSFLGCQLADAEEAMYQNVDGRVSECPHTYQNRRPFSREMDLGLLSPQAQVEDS
In short: (§1)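 Competition binding: DNA- or phage-tagged kinases (T7 phage in E. coli BL21, or HEK-293-expressed) with immobilized biotinylated ligand beads and test compound, 1 h at room temperature. Bead-bound kinase eluted and quantified by qPCR; % Ctrl = (compound − positive control)/(negative control − positive control) ×100 at a single compound concentration.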

[2] = tested on: kinases
In short: as §1

[3] = molecular target: T2, kinases (Homo sapiens, UniProt P36888, D835Y)
T2 construct: purchased Eurofins/DiscoveRx; host or cells: E. coli BL21-derived host (T7 phage display) for most kinases; HEK-293 for the rest
T2 sequence (P36888 27-993 D835Y): T1 sequence (P36888 27-993 R834Q) with Q808R, D809Y
In short: as §1

[4] = molecular target: T3, kinases (Homo sapiens, UniProt P00533, DEL746-750)
T3 construct: purchased Eurofins/DiscoveRx; host or cells: E. coli BL21-derived host (T7 phage display) for most kinases; HEK-293 for the rest
In short: as §1

[5] = molecular target: T4, kinases (Homo sapiens, UniProt P07949, V804M)
T4 construct: purchased Eurofins/DiscoveRx; host or cells: E. coli BL21-derived host (T7 phage display) for most kinases; HEK-293 for the rest
In short: as §1

T4 sequence (P07949 29-1114 V804M): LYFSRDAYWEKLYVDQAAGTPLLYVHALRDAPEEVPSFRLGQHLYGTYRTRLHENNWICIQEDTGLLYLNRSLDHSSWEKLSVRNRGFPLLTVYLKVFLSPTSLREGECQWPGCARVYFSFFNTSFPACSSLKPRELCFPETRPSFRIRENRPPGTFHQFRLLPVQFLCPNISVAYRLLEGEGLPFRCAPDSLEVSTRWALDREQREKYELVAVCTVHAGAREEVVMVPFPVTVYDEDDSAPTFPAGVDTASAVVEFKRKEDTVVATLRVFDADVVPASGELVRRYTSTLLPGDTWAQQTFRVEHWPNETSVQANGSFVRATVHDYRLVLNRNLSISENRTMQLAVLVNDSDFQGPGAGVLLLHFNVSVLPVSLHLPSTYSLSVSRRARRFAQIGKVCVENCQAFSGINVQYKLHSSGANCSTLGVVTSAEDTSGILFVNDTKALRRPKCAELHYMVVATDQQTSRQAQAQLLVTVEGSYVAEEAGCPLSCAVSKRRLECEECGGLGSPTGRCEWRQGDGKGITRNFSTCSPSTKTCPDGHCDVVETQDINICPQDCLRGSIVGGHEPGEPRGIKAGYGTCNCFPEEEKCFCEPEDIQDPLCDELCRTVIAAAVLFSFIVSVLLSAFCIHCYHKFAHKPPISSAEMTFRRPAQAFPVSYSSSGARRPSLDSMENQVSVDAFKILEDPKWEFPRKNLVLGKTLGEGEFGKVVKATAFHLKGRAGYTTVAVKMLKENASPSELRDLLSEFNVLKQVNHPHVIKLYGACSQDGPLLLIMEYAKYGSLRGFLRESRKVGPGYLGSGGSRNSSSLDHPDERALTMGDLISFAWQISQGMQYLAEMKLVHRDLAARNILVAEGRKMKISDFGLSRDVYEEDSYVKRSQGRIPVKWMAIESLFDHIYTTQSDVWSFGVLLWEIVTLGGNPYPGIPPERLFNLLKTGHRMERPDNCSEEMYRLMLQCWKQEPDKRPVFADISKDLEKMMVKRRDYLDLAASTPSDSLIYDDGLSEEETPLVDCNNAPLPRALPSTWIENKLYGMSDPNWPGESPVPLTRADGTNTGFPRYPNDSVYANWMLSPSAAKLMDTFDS

Row | SMILES | % Ctrl, FLT3(R834Q) ([1]; FLT3(R834Q)) [% Ctrl] | % Ctrl, EGFR(L747-E749del, A750P) ([2]; EGFR(L747-E749del, A750P)) [% Ctrl] | % Ctrl, EGFR(L747-S752del, P753S) ([2]; EGFR(L747-S752del, P753S)) [% Ctrl] | % Ctrl, EGFR(L747-T751del, Sins) ([2]; EGFR(L747-T751del, Sins)) [% Ctrl] | % Ctrl, FLT3(ITD) ([2]; FLT3(ITD)) [% Ctrl] | % Ctrl, FLT3(ITD, D835V) ([2]; FLT3(ITD, D835V)) [% Ctrl] | % Ctrl, FLT3(ITD, F691L) ([2]; FLT3(ITD, F691L)) [% Ctrl] | % Ctrl, FLT3(D835Y) ([3]; FLT3(D835Y)) [% Ctrl] | % Ctrl, EGFR(E746-A750del) ([4]; EGFR(E746-A750del)) [% Ctrl] | % Ctrl, RET(V804M) ([5]; RET(V804M)) [% Ctrl] | % Ctrl, FLT3(R834Q) ([1]; target FLT3(R834Q)) [% Ctrl] | % Ctrl, EGFR(L747-E749del, A750P) ([2]; target EGFR(L747-E749del, A750P)) [% Ctrl] | % Ctrl, EGFR(L747-S752del, P753S) ([2]; target EGFR(L747-S752del, P753S)) [% Ctrl] | % Ctrl, EGFR(L747-T751del, Sins) ([2]; target EGFR(L747-T751del, Sins)) [% Ctrl] | % Ctrl, FLT3(ITD) ([2]; target FLT3(ITD)) [% Ctrl] | % Ctrl, FLT3(ITD, D835V) ([2]; target FLT3(ITD, D835V)) [% Ctrl] | % Ctrl, FLT3(ITD, F691L) ([2]; target FLT3(ITD, F691L)) [% Ctrl] | % Ctrl, FLT3(D835Y) ([3]; target FLT3(D835Y)) [% Ctrl] | % Ctrl, EGFR(E746-A750del) ([4]; target EGFR(E746-A750del)) [% Ctrl] | % Ctrl, RET(V804M) ([5]; target RET(V804M)) [% Ctrl]
1 | Cc1cc2c([nH]1)/C=C1\C(=O)Nc3ccc(cc31)-c1ccnn1CCNCCNC2=O [Ex. 43, [19a(20)Z]-2-methyl-5,6,7,8,9,10-hexahydro-15,17-(ethanediylidene)pyrazolo[1,5-g]dipyrrolo[3,4-k:2′,3′-n][1,4,7]triazacyclohexadecine-4,19(1H,18H)-dione] | 85 | 89 | 86 | 85 | 100 | 38 | 47 | 86 | 69 | 97 | – | – | – | – | – | – | – | – | – | –
2 | Cc1cc2c([nH]1)/C=C1\C(=O)Nc3ccc(cc31)-c1cnn(C)c1COCCN(C)C2=O [Ex. 124, [3a(4)Z]-6,9,14-trimethyl-10,11,13,14-tetrahydro-2H-1,17-(ethanediylidene)pyrazolo[4,3-m]dipyrrolo[3,2-f:3′,4′-i][1,4]oxazacyclopentadecine-3,8(5H,9H)-dione] | 0 | 25 | 37 | 57 | 0 | 0 | 0.65 | 5.6 | 15 | 0.05 | – | – | – | – | – | – | – | – | – | –
3 | CN1CCOCCOc2cc3c(cc2Cl)NC(=O)/C3=C\c2[nH]ccc2C1=O [Ex. 143, [16a(17)Z]-19-chloro-2,5-dimethyl-6,7,9,10-tetrahydro-1H-12,14-(ethanediylidene)dipyrrolo[3,2-i:3′,4′-l][1,4,7]oxathiazacyclopentadecine-4,16(5H,15H)-dione] | – | – | – | – | – | – | – | – | – | – | 33 | 90 | 89 | 96 | 2.5 | 0.6 | 1 | 3.1 | 65 | 31
